Data on three compounds can be found in US11464749B2, “Bismuth-thiol compositions and methods of use” (Microbion Corporation, priority 2018, dated 2022).

Series [1] in a line: Single-dose rat PK comparing inhalation, IV and oral dosing. On the procedure:
Blood Collection for Bioanalytical Analysis: Following exposure, non-terminal blood collections were performed on 2 animals per sex at 0.5, 2, and 8 hours post exposure. Approximately 1 mL of systemic whole blood was collected by jugular vein into tubes containing K3EDTA as an anticoagulant. The tubes were flash frozen with liquid nitrogen stored without processing at −70 to −90° C. until shipping for analysis using ICP-MS assay for quantitation of bismuth as a surrogate for BisEDT.
Increasing the dose and interval leads to larger fluctuations in tissue and blood levels between peak (after dosing) and trough levels (prior to dosing).

Series [2] has as its system Staphylococcus aureus (MRSA). The experiment in a line: Broth microdilution MIC (Example 11).
The subject of series [3] is Burkholderia spp. The note with it: initial MIC testing.
The test system of series [4] is Burkholderia spp. The experiment in a line: organism not typed. Conditions: during FIC testing; B. multivorans isolate 1795 (MEM-I, CIP-R). It is filed as cell-based.
For a further series, the system named is Escherichia coli. The experiment in a line: Broth microdilution MIC (Example 12). On the technique in general: In broth dilution the organism is exposed to a series of concentrations in liquid medium.
Where [5] appears, read: 24 hours after single inhalation dose.
[6] abbreviates: 4 days (96 hrs) after single inhalation dose.

≈ marks a conversion by molar mass, not a printed value. Like-named read-outs stand apart in the source and are kept apart here.

The Kp is tissue or fluid exposure divided by exposure in the circulation. For `C1C[S][Bi]([S]CC[S][Bi]2[S]CC[S]2)[S]1` [BisEDT, bismuth-1,2-ethanedithiol], in series [1] (100 μg/kg IV), the “lung levels after IV dosing vs inhalation group” value is listed as under 5%. Further, the tolerability entry in series [1] (100 μg/kg inhalation and IV and 250 μg/kg oral) was “tolerated”. In addition, the “lung levels after oral dosing” value in series [1] (250 μg/kg oral) is “no lung levels”. For the same compound, in series [1] (setting [5]), the “equated concentration in lung fluid” value was 123 µg/mL and the lung tissue concentration was 4,093 ng/g. Moreover, in series [1] (setting [6]), the “equated concentration in lung fluid” value stood at 78 µg/mL and the lung tissue concentration was 2,600 ng/g. In addition, the “duration of initial distribution into tissues” value in series [1] (IV dosing) came out at 18 h. Also, the partition ratio (Kp) in series [1] (both, lung versus whole blood, inhaled, 100 μg/kg) was about 10.

As a reminder, the MIC is the smallest concentration in the dilution series that meets the test's criterion for growth inhibition. `C[C@@H](O)[C@H]1C(=O)N2C(C(=O)O)=C(S[C@@H]3CN[C@H](C(=O)N(C)C)C3)[C@H](C)[C@H]12` [Meropenem, reference compound]: the minimum inhibitory concentration (MIC) in series [2] (ATCC29213|MRSA|MSSA, S. aureus MMX 101 (ATCC 29213), QC, MSSA) came out at 0.06 mg/L (≈ 0.156 µM); in series [2] (MRSA, S. aureus MMX 5373, MRSA Lev^R Cip^R CC^R Ery^R Ox^R) it was 32 mg/L (≈ 83.4 µM); in series [2] (MRSA, S. aureus MMX 6311, MRSA Lev^R Cip^R CC^R Ery^R Ox^R), 8 mg/L (≈ 20.9 µM); in series [2] (MRSA, S. aureus MMX 9203, MRSA Lev^R Cip^R Ery^R Ox^R), 4 mg/L (≈ 10.4 µM); in series [2] (MRSA, S. aureus MMX 9204, MRSA Lev^R Cip^R Ery^R Ox^R), 4 mg/L (≈ 10.4 µM); in series [2] (MRSA, S. aureus MMX 9205, MRSA Lev^R Cip^R CC^R Ery^R Ox^R) it was 64 mg/L (≈ 167 µM).

For `C[C@@H](O)[C@H]1C(=O)N2C(C(=O)O)=C(S[C@@H]3CN[C@H](C(=O)N(C)C)C3)[C@H](C)[C@H]12` [MEM], the minimum inhibitory concentration (MIC) stood at 2 mg/L (≈ 5.22 µM) with Burkholderia spp. [3] (B. multivorans isolate 1580 (CIP-R)); 4 mg/L (≈ 10.4 µM) against Burkholderia spp. [3] (B. multivorans isolate 1791); 8 mg/L (≈ 20.9 µM) against Burkholderia spp. [3] (B. multivorans isolate 1795 (MEM-I, CIP-R)); 2 mg/L (≈ 5.22 µM) against Burkholderia spp. [3] (B. multivorans isolate 5665 (CIP-I)); 2 mg/L (≈ 5.22 µM) against Burkholderia spp. [3] (B. multivorans isolate 8952 (CIP-I)); 4 mg/L in the series on Burkholderia spp. [4]. Besides, the minimal inhibitory concentration (MIC) against Escherichia coli (E. coli ATCC 35218, ESBL) is at most 0.008 mg/L; against Escherichia coli (E. coli ATCC BAA-2471, NDM), over 8 mg/L; against Escherichia coli (E. coli CDC 114, ESBL/KPC), 2 mg/L (≈ 5.22 µM); with Escherichia coli (E. coli CDC 118, ESBL/NDM), 0.06 mg/L (≈ 0.156 µM); in the series on Escherichia coli (E. coli CDC 435, NDM), over 8 mg/L; against Escherichia coli (E. coli CDC 451, KPC), 1 mg/L (≈ 2.61 µM). In addition, the minimum inhibitory concentration (MIC) with Escherichia coli (E. coli CDC 503, ESBL/NDM) was 8 mg/L (≈ 20.9 µM); in the series with Escherichia coli (E. coli MMX 5745, KPC) it was 2 mg/L (≈ 5.22 µM); with Escherichia coli (E. coli MMX 5755, ESBL), 0.015 mg/L (≈ 0.0391 µM); in the series on Escherichia coli (E. coli MMX 5756, ESBL) it was at most 0.008 mg/L; in the series with Escherichia coli (E. coli MMX 5758, ESBL), at most 0.008 mg/L.
